From ChEMBL document CHEMBL1147101, “Development and persistence of antimicrobial resistance in Pseudomonas aeruginosa: a longitudinal observation in mechanically ventilated patients” (Antimicrob Agents Chemother, 2007)
Active and inactive are the calls of the source.

Legend:
Format in all cases: functional, organism-based
Conditions in all cases: Trachea
Pseudomonas aeruginosa [1] = assay: Antimicrobial activity against Pseudomonas aeruginosa 5F2 tracheal isolates from mechanically ventilated chronic respiratory insufficiency patient
Pseudomonas aeruginosa [2] = assay: Antimicrobial activity against Pseudomonas aeruginosa 65.33-2 tracheal isolates from mechanically ventilated tuberculosis patient
Pseudomonas aeruginosa [3] = assay: Antimicrobial activity against Pseudomonas aeruginosa 1B9 tracheal isolates from mechanically ventilated tuberculosis patient
Pseudomonas aeruginosa [4] = assay: Antimicrobial activity against Pseudomonas aeruginosa 3D1 tracheal isolates from mechanically ventilated chronic respiratory insufficiency patient
Pseudomonas aeruginosa [5] = assay: Antimicrobial activity against Pseudomonas aeruginosa 8B11 tracheal isolates from mechanically ventilated chronic respiratory insufficiency patient
Pseudomonas aeruginosa [6] = assay: Antimicrobial activity against Pseudomonas aeruginosa P21.23 tracheal isolates from mechanically ventilated tuberculosis patient
Pseudomonas aeruginosa [7] = assay: Antimicrobial activity against Pseudomonas aeruginosa 19B6 tracheal isolates from mechanically ventilated chronic respiratory insufficiency patient
Pseudomonas aeruginosa [8] = assay: Antimicrobial activity against Pseudomonas aeruginosa 24E5 tracheal isolates from mechanically ventilated chronic respiratory insufficiency patient
Pseudomonas aeruginosa [9] = assay: Antimicrobial activity against Pseudomonas aeruginosa 13E1 tracheal isolates from mechanically ventilated chronic respiratory insufficiency patient
Pseudomonas aeruginosa [10] = assay: Antimicrobial activity against Pseudomonas aeruginosa 29G6 tracheal isolates from mechanically ventilated chronic respiratory insufficiency patient
Pseudomonas aeruginosa [11] = assay: Antimicrobial activity against Pseudomonas aeruginosa 65.38-1 tracheal isolates from mechanically ventilated tuberculosis patient
Pseudomonas aeruginosa [12] = assay: Antimicrobial activity against Pseudomonas aeruginosa 65.33-4 tracheal isolates from mechanically ventilated tuberculosis patient
Pseudomonas aeruginosa [13] = assay: Antimicrobial activity against Pseudomonas aeruginosa 2A5 tracheal isolates from mechanically ventilated tuberculosis patient
Pseudomonas aeruginosa [14] = assay: Antimicrobial activity against Pseudomonas aeruginosa 29G8 tracheal isolates from mechanically ventilated chronic respiratory insufficiency patient
Pseudomonas aeruginosa [15] = assay: Antimicrobial activity against Pseudomonas aeruginosa 19E2 tracheal isolates from mechanically ventilated chronic respiratory insufficiency patient
Pseudomonas aeruginosa [16] = assay: Antimicrobial activity against Pseudomonas aeruginosa 65.68-4 tracheal isolates from mechanically ventilated tuberculosis patient
Pseudomonas aeruginosa [17] = assay: Antimicrobial activity against Pseudomonas aeruginosa 29G7 tracheal isolates from mechanically ventilated chronic respiratory insufficiency patient
Pseudomonas aeruginosa [18] = assay: Antimicrobial activity against Pseudomonas aeruginosa 10B1 tracheal isolates from mechanically ventilated chronic respiratory insufficiency patient
Pseudomonas aeruginosa [19] = assay: Antimicrobial activity against Pseudomonas aeruginosa 2C1 tracheal isolates from mechanically ventilated tuberculosis patient
Pseudomonas aeruginosa [20] = assay: Antimicrobial activity against Pseudomonas aeruginosa 29F6 tracheal isolates from mechanically ventilated chronic respiratory insufficiency patient
Pseudomonas aeruginosa [21] = assay: Antimicrobial activity against Pseudomonas aeruginosa 2A7 tracheal isolates from mechanically ventilated tuberculosis patient
Pseudomonas aeruginosa [22] = assay: Antimicrobial activity against Pseudomonas aeruginosa 65.18-4 tracheal isolates from mechanically ventilated tuberculosis patient
Pseudomonas aeruginosa [23] = assay: Antimicrobial activity against Pseudomonas aeruginosa 65.36-3 tracheal isolates from mechanically ventilated tuberculosis patient
Pseudomonas aeruginosa [24] = assay: Antimicrobial activity against Pseudomonas aeruginosa 16D5 tracheal isolates from mechanically ventilated chronic respiratory insufficiency patient
Pseudomonas aeruginosa [25] = assay: Antimicrobial activity against Pseudomonas aeruginosa 9B5 tracheal isolates from mechanically ventilated chronic respiratory insufficiency patient
Pseudomonas aeruginosa [26] = assay: Antimicrobial activity against Pseudomonas aeruginosa 65.68-3 tracheal isolates from mechanically ventilated tuberculosis patient
Pseudomonas aeruginosa [27] = assay: Antimicrobial activity against Pseudomonas aeruginosa 22D2 tracheal isolates from mechanically ventilated chronic respiratory insufficiency patient
Pseudomonas aeruginosa [28] = assay: Antimicrobial activity against Pseudomonas aeruginosa 65.36-4 tracheal isolates from mechanically ventilated tuberculosis patient
Pseudomonas aeruginosa [29] = assay: Antimicrobial activity against Pseudomonas aeruginosa 19C7 tracheal isolates from mechanically ventilated chronic respiratory insufficiency patient
Pseudomonas aeruginosa [30] = assay: Antimicrobial activity against Pseudomonas aeruginosa 1A9 tracheal isolates from mechanically ventilated tuberculosis patient
Pseudomonas aeruginosa [31] = assay: Antimicrobial activity against Pseudomonas aeruginosa 3B1 tracheal isolates from mechanically ventilated tuberculosis patient
Pseudomonas aeruginosa [32] = assay: Antimicrobial activity against Pseudomonas aeruginosa 9A1 tracheal isolates from mechanically ventilated chronic respiratory insufficiency patient
Pseudomonas aeruginosa [33] = assay: Antimicrobial activity against Pseudomonas aeruginosa 9A10 tracheal isolates from mechanically ventilated chronic respiratory insufficiency patient
Pseudomonas aeruginosa [34] = assay: Antimicrobial activity against Pseudomonas aeruginosa 2A9 tracheal isolates from mechanically ventilated tuberculosis patient
Pseudomonas aeruginosa [35] = assay: Antimicrobial activity against Pseudomonas aeruginosa 8A12 tracheal isolates from mechanically ventilated chronic respiratory insufficiency patient
Pseudomonas aeruginosa [36] = assay: Antimicrobial activity against Pseudomonas aeruginosa 10B3 tracheal isolates from mechanically ventilated chronic respiratory insufficiency patient
Pseudomonas aeruginosa [37] = assay: Antimicrobial activity against Pseudomonas aeruginosa 10A9 tracheal isolates from mechanically ventilated chronic respiratory insufficiency patient
Pseudomonas aeruginosa [38] = assay: Antimicrobial activity against Pseudomonas aeruginosa 2A6 tracheal isolates from mechanically ventilated tuberculosis patient
Pseudomonas aeruginosa [39] = assay: Antimicrobial activity against Pseudomonas aeruginosa 22D6 tracheal isolates from mechanically ventilated chronic respiratory insufficiency patient
Pseudomonas aeruginosa [40] = assay: Antimicrobial activity against Pseudomonas aeruginosa 2C2 tracheal isolates from mechanically ventilated tuberculosis patient
Pseudomonas aeruginosa [41] = assay: Antimicrobial activity against Pseudomonas aeruginosa 22D9 tracheal isolates from mechanically ventilated chronic respiratory insufficiency patient
Pseudomonas aeruginosa [42] = assay: Antimicrobial activity against Pseudomonas aeruginosa 65.36-2 tracheal isolates from mechanically ventilated tuberculosis patient
Pseudomonas aeruginosa [43] = assay: Antimicrobial activity against Pseudomonas aeruginosa 22E3 tracheal isolates from mechanically ventilated chronic respiratory insufficiency patient
Pseudomonas aeruginosa [44] = assay: Antimicrobial activity against Pseudomonas aeruginosa 5F8 tracheal isolates from mechanically ventilated chronic respiratory insufficiency patient
Pseudomonas aeruginosa [45] = assay: Antimicrobial activity against Pseudomonas aeruginosa 3E2 tracheal isolates from mechanically ventilated chronic respiratory insufficiency patient
Pseudomonas aeruginosa [46] = assay: Antimicrobial activity against Pseudomonas aeruginosa 65.68-1 tracheal isolates from mechanically ventilated tuberculosis patient
Pseudomonas aeruginosa [47] = assay: Antimicrobial activity against Pseudomonas aeruginosa 2A2 tracheal isolates from mechanically ventilated tuberculosis patient
Pseudomonas aeruginosa [48] = assay: Antimicrobial activity against Pseudomonas aeruginosa P21.21 tracheal isolates from mechanically ventilated tuberculosis patient
Pseudomonas aeruginosa [49] = assay: Antimicrobial activity against Pseudomonas aeruginosa 10A6 tracheal isolates from mechanically ventilated chronic respiratory insufficiency patient
Pseudomonas aeruginosa [50] = assay: Antimicrobial activity against Pseudomonas aeruginosa 15G2 tracheal isolates from mechanically ventilated chronic respiratory insufficiency patient
Pseudomonas aeruginosa [51] = assay: Antimicrobial activity against Pseudomonas aeruginosa 65.33-1 tracheal isolates from mechanically ventilated tuberculosis patient
Pseudomonas aeruginosa [52] = assay: Antimicrobial activity against Pseudomonas aeruginosa 2F6 tracheal isolates from mechanically ventilated tuberculosis patient
Pseudomonas aeruginosa [53] = assay: Antimicrobial activity against Pseudomonas aeruginosa 9A7 tracheal isolates from mechanically ventilated chronic respiratory insufficiency patient
Pseudomonas aeruginosa [54] = assay: Antimicrobial activity against Pseudomonas aeruginosa 19B3 tracheal isolates from mechanically ventilated chronic respiratory insufficiency patient
Pseudomonas aeruginosa [55] = assay: Antimicrobial activity against Pseudomonas aeruginosa 65.68-2 tracheal isolates from mechanically ventilated tuberculosis patient
Pseudomonas aeruginosa [56] = assay: Antimicrobial activity against Pseudomonas aeruginosa 5G3 tracheal isolates from mechanically ventilated chronic respiratory insufficiency patient
Pseudomonas aeruginosa [57] = assay: Antimicrobial activity against Pseudomonas aeruginosa 22E1 tracheal isolates from mechanically ventilated chronic respiratory insufficiency patient
Pseudomonas aeruginosa [58] = assay: Antimicrobial activity against Pseudomonas aeruginosa 2A3 tracheal isolates from mechanically ventilated tuberculosis patient
Pseudomonas aeruginosa [59] = assay: Antimicrobial activity against Pseudomonas aeruginosa 24G1 tracheal isolates from mechanically ventilated chronic respiratory insufficiency patient
Pseudomonas aeruginosa [60] = assay: Antimicrobial activity against Pseudomonas aeruginosa 8C4 tracheal isolates from mechanically ventilated chronic respiratory insufficiency patient

Measured: Activity

CCn1cc(C(=O)O)c(=O)c2cc(F)c(N3CCNCC3)cc21
active: Pseudomonas aeruginosa [1] | Pseudomonas aeruginosa [2] | Pseudomonas aeruginosa [3] | Pseudomonas aeruginosa [4] | Pseudomonas aeruginosa [5] | Pseudomonas aeruginosa [6] | Pseudomonas aeruginosa [7] | Pseudomonas aeruginosa [8] | Pseudomonas aeruginosa [9] | Pseudomonas aeruginosa [10] | Pseudomonas aeruginosa [11] | Pseudomonas aeruginosa [12] | Pseudomonas aeruginosa [13] | Pseudomonas aeruginosa [14] | Pseudomonas aeruginosa [15] | Pseudomonas aeruginosa [16] | Pseudomonas aeruginosa [17] | Pseudomonas aeruginosa [18] | Pseudomonas aeruginosa [19] | Pseudomonas aeruginosa [20] | Pseudomonas aeruginosa [21] | Pseudomonas aeruginosa [22] | Pseudomonas aeruginosa [23] | Pseudomonas aeruginosa [24] | Pseudomonas aeruginosa [25] | Pseudomonas aeruginosa [26] | Pseudomonas aeruginosa [27] | Pseudomonas aeruginosa [28] | Pseudomonas aeruginosa [29] | Pseudomonas aeruginosa [30] | Pseudomonas aeruginosa [31] | Pseudomonas aeruginosa [32] | Pseudomonas aeruginosa [33] | Pseudomonas aeruginosa [34] | Pseudomonas aeruginosa [35] | Pseudomonas aeruginosa [36] | Pseudomonas aeruginosa [37] | Pseudomonas aeruginosa [38] | Pseudomonas aeruginosa [39] | Pseudomonas aeruginosa [40] | Pseudomonas aeruginosa [41] | Pseudomonas aeruginosa [42] | Pseudomonas aeruginosa [43] | Pseudomonas aeruginosa [44] | Pseudomonas aeruginosa [45] | Pseudomonas aeruginosa [46] | Pseudomonas aeruginosa [47] | Pseudomonas aeruginosa [48] | Pseudomonas aeruginosa [49] | Pseudomonas aeruginosa [51] | Pseudomonas aeruginosa [52] | Pseudomonas aeruginosa [53] | Pseudomonas aeruginosa [54] | Pseudomonas aeruginosa [55] | Pseudomonas aeruginosa [56] | Pseudomonas aeruginosa [57] | Pseudomonas aeruginosa [58] | Pseudomonas aeruginosa [59] | Pseudomonas aeruginosa [60]
inactive: Pseudomonas aeruginosa [50]
